Results taken from EP1043336A2, “Stereospecific antibodies for imidazolinone herbicides” (The Regents of the University of California, priority 1999, dated 2000).

What was measured:
MAb 3A2 = experiment: Indirect competition EIA, cross-reactivity with common agrochemicals (wells coated with hapten 17-OA); format: binding, mouse; conditions: for inhibition: 5-10 ppm
Procedure: EIAs were done essentially as described by Karu et al (1994). For indirect EIAs, hapten-protein conjugates were adsorbed to wells of Immulon 2™ 96-well plates (Dynatech) in 0.1 mL of coating buffer (0.015 M Na2CO3 ― 0.035 M NaHCO3 ―0.003 M NaN3, pH 9.6). PBS-Tween containing 0.05% gelatin, 0.45 micron-filtered, was used as the diluent for antibodies and antibody-analyte mixtures, and as a blocking solution to prevent adventitious binding. The detecting antibody for the indirect EIAs was alkaline phosphatase conjugated goat anti-mouse IgG and IgM The substrate solution for color development was p-nitrophenyl phosphate 1 mg/mL, in 10% (w/v) diethanolamine-HCl, pH 9.8 ― 0.5 mM MgCl2 ― 3 mM NaN3. • 1. Indirect competition EIA. Indirect competition EIA (immobilized hapten conjugate) was used to evaluate the responses of mice, screen the MAbs, and quantify imidazolinone analytes. Optimal amounts of imidazolinone-BSA or -OVA conjugate for plate coating and dilutions for the hybridoma culture supernate or antiserum were determined by checkerboard assay. To perform the assay, wells were coated overnight at 4°C with a limiting amount of conjugate in 0.1 mL of coating buffer. Imidazolinone standards (0.5 to 5000 ppb) or unknowns were mixed with a limiting amount of antiserum or hybridoma culture fluid in the diluent and incubated overnight at 4°C in tightly sealed polypropylene tubes. The coated wells were washed and blocked with 0.2 mL of 0.05% gelatin in PBS-Tween for 30 minutes at room temperature. After another wash, aliquots (0.1 mL) of the antibody-analyte mixture were added to wells, and the remainder of the assay was performed as previously described (Karu et al., 1994). • 2. Direct competition EIA. Direct EIAs were performed by capturing the MAb on microwells and allowing the analyte to compete with a HRP-conjugated hapten for binding. Bound HRP-conjugate was then detected with a commercial HRP substrate. The sensitivity of this assay was enhanced by use of a commercial enzymatic signal amplification kit (GIBCO-BRL). Wells were coated with 200 or 500 ng of affinity-purified goat anti-mouse IgG or anti-mouse IgG Fc in the coating buffer at 4°C overnight. The next day, the wells were washed and blocked with PBS-Tween-gelatin for 30 minutes at room temperature, and then incubated for 1.5 hours at room temperature with hybridoma culture supernate. The plates were washed with PBS-Tween, and 0.1 mL of diluent containing the analyte and a limiting amount of biotinylated imidazolinone was added for 1.5 h at room temperature. The wells were washed three times with PBS-Tween, and Extravidin-alkaline phosphatase conjugate (Sigma) was then added for 30 minutes at room temperature. The plates were washed again with TBS (0.05 M Tris-HCl, pH 7.5,― 0.15 M NaCl) to remove remaining inorganic phosphate, which can inhibit the GIBCO-BRL EIA Amplification system. Substrate solution for the amplification step (0.05 mL) was added for 15 minutes at room temperature, followed by 0.05 mL of the enzymatic amplifying solution and chromogen. Color development at 492 nm was recorded. • 3. EIA Data Analysis. Color development was monitored on a Multiskan EIA reader (Flow Laboratories) interfaced with a Macintosh computer, and the rates of the reaction were calculated by linear regression. Competition EIA dose- response curves were fitted with a 4-parameter logistic equation (Karu et al., 1994). […]

[1] = tested on: scFv p3A5.1c7 (scFv 3A5, SEQ.ID NO. 3); experiment: Relative affinity of MAb and affinity-purified scFv by indirect EIA with equimolar protein; format: binding, mouse; conditions: indirect EIA on 16-BSA, scFv versus MAb 3A5
Procedure: The relative affinities of the MAbs and affinity-purified scFv were determined by indirect EIA using equimolar amounts of protein, essentially as described by Graham, B. M., et al. 1995. Cloning, expression, and characterization of a single-chain antibody fragment to the herbicide paraquat. J. Chem. Tech. Biotechnol. 63: 279-289. The results are illustrated in graphical form in Figures 15A (16-BSA) and 15B (17-OA), with the MAb represented by the solid line and the scFv represented by the broken line in each plot.

[2] = tested on: panel of monoclonal antibodies (MAbs); experiment: Detection of imidazolinones by the panel of MAbs (EIA); format: binding, mouse
Procedure: EIAs were done essentially as described by Karu et al (1994). For indirect EIAs, hapten-protein conjugates were adsorbed to wells of Immulon 2™ 96-well plates (Dynatech) in 0.1 mL of coating buffer (0.015 M Na2CO3 ― 0.035 M NaHCO3 ―0.003 M NaN3, pH 9.6). PBS-Tween containing 0.05% gelatin, 0.45 micron-filtered, was used as the diluent for antibodies and antibody-analyte mixtures, and as a blocking solution to prevent adventitious binding. The detecting antibody for the indirect EIAs was alkaline phosphatase conjugated goat anti-mouse IgG and IgM The substrate solution for color development was p-nitrophenyl phosphate 1 mg/mL, in 10% (w/v) diethanolamine-HCl, pH 9.8 ― 0.5 mM MgCl2 ― 3 mM NaN3. • 1. Indirect competition EIA. Indirect competition EIA (immobilized hapten conjugate) was used to evaluate the responses of mice, screen the MAbs, and quantify imidazolinone analytes. Optimal amounts of imidazolinone-BSA or -OVA conjugate for plate coating and dilutions for the hybridoma culture supernate or antiserum were determined by checkerboard assay. To perform the assay, wells were coated overnight at 4°C with a limiting amount of conjugate in 0.1 mL of coating buffer. Imidazolinone standards (0.5 to 5000 ppb) or unknowns were mixed with a limiting amount of antiserum or hybridoma culture fluid in the diluent and incubated overnight at 4°C in tightly sealed polypropylene tubes. The coated wells were washed and blocked with 0.2 mL of 0.05% gelatin in PBS-Tween for 30 minutes at room temperature. After another wash, aliquots (0.1 mL) of the antibody-analyte mixture were added to wells, and the remainder of the assay was performed as previously described (Karu et al., 1994). • 2. Direct competition EIA. Direct EIAs were performed by capturing the MAb on microwells and allowing the analyte to compete with a HRP-conjugated hapten for binding. Bound HRP-conjugate was then detected with a commercial HRP substrate. The sensitivity of this assay was enhanced by use of a commercial enzymatic signal amplification kit (GIBCO-BRL). Wells were coated with 200 or 500 ng of affinity-purified goat anti-mouse IgG or anti-mouse IgG Fc in the coating buffer at 4°C overnight. The next day, the wells were washed and blocked with PBS-Tween-gelatin for 30 minutes at room temperature, and then incubated for 1.5 hours at room temperature with hybridoma culture supernate. The plates were washed with PBS-Tween, and 0.1 mL of diluent containing the analyte and a limiting amount of biotinylated imidazolinone was added for 1.5 h at room temperature. The wells were washed three times with PBS-Tween, and Extravidin-alkaline phosphatase conjugate (Sigma) was then added for 30 minutes at room temperature. The plates were washed again with TBS (0.05 M Tris-HCl, pH 7.5,― 0.15 M NaCl) to remove remaining inorganic phosphate, which can inhibit the GIBCO-BRL EIA Amplification system. Substrate solution for the amplification step (0.05 mL) was added for 15 minutes at room temperature, followed by 0.05 mL of the enzymatic amplifying solution and chromogen. Color development at 492 nm was recorded. • 3. EIA Data Analysis. Color development was monitored on a Multiskan EIA reader (Flow Laboratories) interfaced with a Macintosh computer, and the rates of the reaction were calculated by linear regression. Competition EIA dose- response curves were fitted with a 4-parameter logistic equation (Karu et al., 1994).

[3] = tested on: AHAS isozymes, designated I and II; conditions: isozymes from Black Mexican Sweet corn; cited from earlier work
[4] = tested on: scFv p3A5.1c7 (scFv 3A5, SEQ.ID NO. 3); experiment: Indirect competition EIA with scFv (16-BSA coating), compared with MAb 3A5.1; format: binding, mouse; conditions: scFv on 16-BSA versus MAb 3A5.1

For CCCN(CCC)C(=O)SCC [EPTC, S-ethyl dipropylthiocarbamate], the cross-reactivity (MAb 3A2; up to 10 ppm) was “No cross-reactivity”.
In the case of CCc1cccc(CC)c1N(COC)C(=O)CCl [alachlor, 2-chloro-2'-6'-diethyl-N-(methoxymethyl)-acetanilide], the cross-reactivity (MAb 3A2; up to 10 ppm) is reported as “No cross-reactivity”.
With CCNc1nc(Cl)nc(NC(C)C)n1 [atrazine, Atrazine] the cross-reactivity (MAb 3A2; up to 10 ppm) was “No cross-reactivity”.
For CCOC(=O)c1ccccc1S(=O)(=O)NC(=O)Nc1nc(Cl)cc(OC)n1 [chlorimuron ethyl, ethyl 2-[[[[(4-chloro-6-methoxypyrimidin 2-yl)amino]carbonyl]amino]sulfonyl]benzoate], the inhibition (MAb 3A2) was 10-15% and the cross-reactivity (MAb 3A2; up to 5 ppm) was “did not cross-react”.
In the case of COc1nc(C)nc(NC(=O)NS(=O)(=O)c2ccccc2Cl)n1 [chlorsulfuron, 2-chloro-N[(4-methoxy-6-methyl-1,3,5 triazin-2-yl)aminocarbonyl]benzenesulfonamide], the inhibition (MAb 3A2) is reported as 10-15% and the cross-reactivity (MAb 3A2; up to 5 ppm) is reported as “did not cross-react”.
For CC(C)N.O=C(O)CNCP(=O)(O)O [glyphosate, N-(phosphono-methyl) glycine isopropylamine salt], the cross-reactivity (MAb 3A2; up to 10 ppm) was “No cross-reactivity”.
In the case of CC(C)C1(C)N=C(c2ncc(C=CC(=O)O)cc2C(=O)O)NC1=O (stereo not shown) [hapten 16, imazapyr-5-propenoic acid], the “affinity of the scFv relative to that of the MAb (fold poorer)” value [1] is reported as “about 1,000 fold”.
In the case of Cc1cnc(C2=NC(C)(C(C)C)C(=O)N2)c(C(=O)O)c1 (stereo not shown) [imazapic, 5-methyl-2-(4-isopropyl-4-methyl-5-oxo-2-imidazolin-2-yl) nicotinic acid], the detection range [2] is reported as 3 to 30 ng/mL.
In the case of CC(C)C1(C)N=C(c2ncccc2C(=O)O)NC1=O (stereo not shown) [imazapyr, 2-(4-isopropyl-4-methyl-5-oxo-2-imidazolin-2-yl) nicotinic acid], the detection range [2] is given as 300-500 ppb and the “sensitivity of AHAS II vs AHAS I to inhibition” value [3] is given as “significantly more sensitive”.
In the case of CC(C)C1(C)N=C(c2nc3ccccc3cc2C(=O)O)NC1=O (stereo not shown) [imazaquin, 2-(4-isopropyl-4-methyl-5-oxo-2-imidazolin-2-yl)-3-quinoline carboxylic acid], the detection range [2] is reported as 3 to 30 ng/mL and the “I50 with scFv relative to I50 with the MAb (higher = less sensitive)” value [4] is reported as “about two-fold”.
In the case of CCc1cccc(C)c1N(C(=O)CCl)C(C)COC (stereo not shown) [metolachlor, 2-chloro-N-(2-ethyl-6-methylphenyl)-N-(2-methoxy-1-methylethyl) acetamide], the cross-reactivity (MAb 3A2; up to 10 ppm) is reported as “No cross-reactivity”.
In the case of CCSC(=O)N1CCCCCC1 [molinate, S-ethyl-hexahydro-1-H-azepine-1-carbothioate], the cross-reactivity (MAb 3A2; up to 10 ppm) is reported as “No cross-reactivity”.
For CCOc1cc(Oc2ccc(C(F)(F)F)cc2Cl)ccc1[N+](=O)[O-] [oxyfluorfen, 2-chloro-1-(3-ethoxy-4-nitrophenoxy)-4-(trifluoromethyl) benzene], the cross-reactivity (MAb 3A2; up to 10 ppm) was “No cross-reactivity”.
With C[n+]1ccc(-c2cc[n+](C)cc2)cc1.[Cl-].[Cl-] [paraquat, 1,1'-dimethyl-4,4'-bipyridinium dichloride] the cross-reactivity (MAb 3A2; up to 10 ppm) was “No cross-reactivity”.
In the case of CCC(CC)Nc1c([N+](=O)[O-])cc(C)c(C)c1[N+](=O)[O-] [pendimethalin, N-(1-ethylpropyl)-3,4-dimethyl-2,6-dinitrobenzenamine], the cross-reactivity (MAb 3A2; up to 10 ppm) is reported as “No cross-reactivity”.
In the case of COC(=O)Nc1cccc(OC(=O)Nc2cccc(C)c2)c1 [phenmedipham, 3-methoxycarbonylaminophenyl-N(3'-methylphenyl)carbamate], the cross-reactivity (MAb 3A2; up to 10 ppm) is reported as “No cross-reactivity”.
In the case of CCC/C(=N\OCC)C1=C(O)CC(CC(C)SCC)CC1=O (stereo not shown) [sethoxydim], the cross-reactivity (MAb 3A2; up to 10 ppm) is reported as “No cross-reactivity”.
With “a mixture of methyl 6-(4-isopropyl-4-methyl-5-oxo-2-imidazolin-2-yl) m-toluate and methyl 2-(4-isopropyl-4-methyl-5-oxo-2-imidazolin-2-yl) p-toluate [imazamethabenz-methyl]” the detection range [2] was 300-500 ppb.
